In US9737504B2, “Dihydroorotic and acid dehydrogenase inhibitor” (NAI INC., priority 2012, dated 2017):
Where two headings read alike, the source gives them in different places.

How the values were obtained:
bovine complex II-III = assay: Inhibition of bovine complex II-III; assay type: biochemical
OVCAR-8 = assay: JFCR39 cancer cell growth inhibition test, OVCAR-8; assay type: cell-based; conditions: Homo sapiens; OVCAR-8, Ov (Ovarian)
KM-12 = assay: JFCR39 cancer cell growth inhibition test, KM-12; assay type: cell-based; conditions: Homo sapiens, KM12; KM-12, Co (Colon)
human DHOD [1] = target: T1, human DHOD (Homo sapiens, UniProt Q02127); assay: Measurement of DHOD inhibitory activity (DCIP reduction, end point assay); assay type: biochemical; conditions: read-out: DHOD inhibition rate (%) 100 nM; 100 nM compound
T1 sequence (Q02127 whole entry): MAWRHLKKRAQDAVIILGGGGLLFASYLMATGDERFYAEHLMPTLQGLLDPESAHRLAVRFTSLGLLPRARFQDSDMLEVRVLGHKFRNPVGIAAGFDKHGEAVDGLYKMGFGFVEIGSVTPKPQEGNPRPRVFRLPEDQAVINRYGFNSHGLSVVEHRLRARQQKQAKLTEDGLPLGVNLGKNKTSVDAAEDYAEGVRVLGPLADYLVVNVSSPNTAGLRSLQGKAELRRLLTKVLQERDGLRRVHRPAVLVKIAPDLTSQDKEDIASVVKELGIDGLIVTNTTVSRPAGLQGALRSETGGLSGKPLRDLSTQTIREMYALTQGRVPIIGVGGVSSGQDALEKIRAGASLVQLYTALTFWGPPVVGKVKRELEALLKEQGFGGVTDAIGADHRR

human DHOD [2] = target: T1, human DHOD; assay: as above; assay type: biochemical; conditions: for inhibition at 0.2 µM: read-out: DHOD inhibition rate (%) 200 nM, 200 nM compound; for IC50: read-out: IC50 (nM) human DHOD (HsDHOD)
Procedure: The compounds of the present invention were used and measured for their DHOD inhibitory activity at concentrations of 200 nM and 1000 nM.
Reduction of DCIP was measured at 600 nm over 20 minutes.

[3] = system: HDF cells (human dermal fibroblast cells); assay: Inhibitory effect on HDF cells, control vs hypoxic and subnutritional conditions; assay type: cell-based; conditions: for Selectivity = 21% glc(+)gln(+) IC50/1% glc(−)gln(−) IC50: HDF; for IC50: Homo sapiens, HDF normal skin cells
Procedure: (§1) For these reasons, cells of colorectal and pancreatic cancers, each being regarded as intractable, were used to test the inhibitory effect of compounds under hypoxic and subnutritional conditions. Moreover, the same test was also performed on normal skin cells.
The cells used were two types of cancer cells, i.e., DLD-1 cells (human colorectal cancer cells) and Panc-1 cells (human pancreatic cells), as well as HDF cells (human dermal fibroblast cells).

[4] = system: DLD-1 cells (human colorectal cancer cells); assay: Inhibitory effect on DLD-1 cells, control vs hypoxic and subnutritional conditions; assay type: cell-based; conditions: for IC50: Homo sapiens
Procedure: as §1
The cells used were two types of cancer cells, i.e., DLD-1 cells (human colorectal cancer cells) and Panc-1 cells (human pancreatic cells), as well as HDF cells (human dermal fibroblast cells). Culture conditions were set as follows: 21% oxygen with glucose and […] (10% FBS) for the control group, and 1% oxygen without glucose and […] (10% FBS) for the hypoxic and subnutritional group. The results obtained are shown in Tables 3, 4 and 5, as well as FIGS. 1, 2 and 3.

L0X-IMVI = assay: JFCR39 cancer cell growth inhibition test, L0X-IMVI; assay type: cell-based; conditions: Homo sapiens, Me (Melanoma)
MKN74 = assay: JFCR39 cancer cell growth inhibition test, MKN74; assay type: cell-based; conditions: Homo sapiens, MKN-74; MKN74, St (Stomac)
HCC2998 = assay: JFCR39 cancer cell growth inhibition test, HCC2998; assay type: cell-based; conditions: Homo sapiens, HCC 2998; HCC2998, Co (Colon)
MKN28 = assay: JFCR39 cancer cell growth inhibition test, MKN28; assay type: cell-based; conditions: Homo sapiens, MKN-28; MKN28, St (Stomac)
DLD-2 colon cancer = conditions: in vivo; cited from earlier work
UMP levels = conditions: after treatment with 25 μM NSC368390; cited from earlier work
[5] = system: human MX-1 breast, LX-1 lung, BL/STX-1 stomach and CX-1 colon carcinomas; conditions: nude mice, 20 to 40 mg/kg/day; MX-1, LX-1, BL/STX-1, CX-1; cited from earlier work
[6] = read-out: IC50 DLD-1 [μM] 1% O2 glc(−)gln(−), DLD-1, 1% O2 glc(−)gln(−), 24 hours
[7] = read-out: IC50 DLD-1 [μM] 1% O2 glc(−)gln(−), DLD-1, 1% O2 glc(−)gln(−), 48 hours
[8] = read-out: IC50 [μM] 1% O2 glc(−)gln(−), 1% O2 glc(−)gln(−)

Row | Structure (SMILES) | IC50 (bovine complex II-III) [nM] | GI50 (OVCAR-8) [nM] | GI50 (KM-12) [nM] | inhibition at 0.1 µM (human DHOD [1]) [%] | inhibition at 0.2 µM (human DHOD [2]) [%] | IC50 (human DHOD [2]) [nM] | Selectivity = 21% glc(+)gln(+) IC50/1% glc(−)gln(−) IC50 [3] | Selectivity = 21% glc(+)gln(+) IC50/1% glc(−)gln(−) IC50 ([4]; DLD-1, 24 hours) | Selectivity = 21% glc(+)gln(+) IC50/1% glc(−)gln(−) IC50 ([4]; DLD-1, 48 hours) | IC50 [4, 6] [µM] | IC50 [4, 7] [µM] | IC50 [3, 8] [µM] | GI50 (MKN74) [nM] | also measured
1 | COC(=O)/C(C)=C/CC/C(C)=C/Cc1c(O)c(Cl)c(C)c(C=O)c1O [275-10-COOMe, Methyl (2E,6E)-8-(3-chloro-5-formyl-2,6-dihydroxy-4-methyl)phenyl-2,6-dimethyl-2,6-octa dienoate] | 1900 | 4400 | 6400 | 100 | 100 | 4.2 | >32 | >59 | >156 | 1.7 | 0.64 | – | – | –
2 | C/C(=C\Cc1c(O)c(Cl)c(C)c(C=O)c1O)CC/C=C(\C)C(C)O (stereo not drawn) [277-9-OH, 3-Chloro-4,6-dihydroxy-2-methyl-5-(2E,6E)-(8-hydroxy-3,7-dimethyl-2,6-nonadienyl)benzaldehyde] | – | – | 32000 | 107 | 75 | 64 | – | – | – | – | – | – | – | –
3 | CC(=O)OC(C)/C(C)=C/CC/C(C)=C/Cc1c(O)c(Cl)c(C)c(C=O)c1O (stereo not drawn) [277-11-OAc, (3E,7E)-9-(3-Chloro-5-formyl-2,6-dihydroxy-4-methyl)phenyl-3,7-dimethyl-3,7-nonadien-2-yl acetate] | 4500 | – | 5700 | 103 | 97 | 6.5 | >25 | >53 | >109 | 1.9 | 0.92 | 4 | – | GI50 (L0X-IMVI): 1500 nM
4 | CC(C)=CCC/C(C)=C/CC/C(C)=C/Cc1c(O)c(Cl)c(C)c(C=O)c1O [280-12, (E,E)-3-Chloro-4,6-dihydroxy-5-(3,7,11-trimethyl-2,6,10-dodecatienyl)-2-methylbenzaldehyde] | 260 | – | 2000 | 94 | 104 | 6 | 353 | 1100 | 1480 | 0.069 | 0.025 | 0.17 | 1300 | IC50 ([3]; 21% O2 glc(+)gln(+), read-out: IC50 [μM] 21% O2 glc(+)gln(+)): 60 µM; IC50 ([4]; DLD-1, 21% O2 glc(+)gln(+), 24 hours, read-out: IC50 DLD-1 [μM] 21% O2 glc(+)gln(+)): 76 µM; IC50 ([4]; DLD-1, 21% O2 glc(+)gln(+), 48 hours, read-out: IC50 DLD-1 [μM] 21% O2 glc(+)gln(+)): 37 µM
5 | C/C(=C\COC(=O)C(C)C)CC/C(C)=C/Cc1c(O)c(Cl)c(C)c(C=O)c1O [287-12-OCOiPr, (2E,6E)-8-(3-Chloro-5-formyl-2,6-dihydroxy-4-methylphenyl)-3,6-dimethyl-2,6-octa dienyl isobutylate] | – | 9100 | 10000 | 109 | 101 | 21.5 | – | – | – | – | – | – | 14000 | melting point: 62 to 63 °C; GI50 (HCC2998): 15000 nM; GI50 (MKN28): 10000 nM
6 | Cc1c(-c2ccc(-c3ccccc3F)cc2)nc2ccc(F)cc2c1C(=O)[O-].[Na+] [NSC368390, 6-Fluoro-2-(2′-fluoro-1,1′-biphenyl-4-yl)-3-methyl-4-quinolinecarboxylic Acid Sodium Salt] | – | – | – | – | – | – | – | – | – | – | – | – | – | growth inhibition of DLD-2 colon cancer (DLD-2 colon cancer): 98%; reduction of UMP levels (UMP levels): 50%; inhibition of the growth of human carcinomas [5]: ≥ 90%
